Experimental data from patent publication US20160194358A1, “LINEAR PEPTIDE ANTIBIOTCS” (priority 2013, published 2016).
In brackets after ≈: the same amount, converted by molar mass. Like-named read-outs stand apart in the source and are kept apart here. *1 amine or outer side, *2 acyl side, *3 side chain or, on linkers, in order; H or OH if unused. Where a SMILES comes first, the peptide text is derived from it. [ ]: non-standard residue; d: D form. The star is where a group is joined. boroAla((+)-pinanediol) = C[C@H](N*)B1O[C@@H]2C[C@@H]3C[C@@H](C3(C)C)[C@]2(C)O1; Biphenylcarbonyl(4'-Bu) = CCCCc1ccc(-c2ccc(C(=O)*)cc2)cc1; X5 = C[C@H](N*)B1OC2C[C@@H]3C[C@@H](C3(C)C)[C@]2(C)O1; Benzoyl(4-(4-Cl-Ph)) = O=C(c1ccc(-c2ccc(Cl)cc2)cc1)*; Ethanesulfonyl(2-NHDecyl) = CCCCCCCCCCNCCS(=O)(=O)*; Propanoyl(3-decylamino) = CCCCCCCCCCNCCC(=O)*; AlaCOCOOMe = COC(=O)C(=O)[C@H](C)N*; X1 = C[C@H](N[*:1])C(=O)C(=O)[*:2]; X26 = CCCCCCCCc1ccc(C(=O)*)c(C)c1; X20 = CC(N*)C(=O)C(F)(F)C(=O)O; aThr = C[C@H](O)[C@H](N)C(=O)O; X2 = C[C@H](N*)C(=O)c1ncco1; X22 = C[C@H](N*)C(=O)C(=O)O; X6 = NCCCCCCCCCCCCCCC(=O)*; boroAla = C[C@H](N*)B(O)O; Dab = NCC[C@H](N)C(=O)O; Dap = NC[C@H](N)C(=O)O; NHiPr = CC(C)N*; CH2Cl = ClC*

How the values were obtained:
[1] = system: Escherichia coli strain MC4100 IMP-4213, which harbors an LptD mutation; settings: E. coli MC4100 IMP-4213, 35° C., 22 hours
Summary of the method: (§1)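 CLSI broth microdilution in cation-adjusted Mueller Hinton Broth with 0.002% Tween-80, two-fold dilutions starting at 64 μg/ml.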

[2] = system: methicillin resistant Staphylococcus aureus (MRSA) strain USA300 (NRS384)
Summary of the method: as §1

E. coli SPase = target: T1, E. coli SPase (Escherichia coli, UniProt P00803); assay: Biochemical SPase activity assay, fluorogenic peptide substrate, E. coli enzyme; settings: 20 μM substrate, 10 minutes preincubation, read-out: IC 50 (nM) E. coli
T1 construct: Full length His-tagged E. coli SPase proteins; His; made in house; host or cells: E. coli BL21(DE3)
T1 sequence (P00803 whole entry): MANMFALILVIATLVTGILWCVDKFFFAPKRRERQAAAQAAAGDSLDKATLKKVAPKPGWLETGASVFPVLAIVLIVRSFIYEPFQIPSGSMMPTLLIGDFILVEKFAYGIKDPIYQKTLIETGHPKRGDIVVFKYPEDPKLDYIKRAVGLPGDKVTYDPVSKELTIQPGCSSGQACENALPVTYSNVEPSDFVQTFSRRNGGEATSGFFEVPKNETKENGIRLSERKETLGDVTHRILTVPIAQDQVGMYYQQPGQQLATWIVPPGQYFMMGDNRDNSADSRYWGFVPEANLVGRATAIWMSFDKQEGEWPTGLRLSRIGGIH
Experimental: Full length His-tagged E. coli SPase proteins were expressed in E. coli BL21(DE3) containing the plasmid pET23-lepB. Briefly, saturated overnight cultures grown in 20 ml of Luria-Bertani medium supplemented with ampicillin were subcultures into 1.5 L of Luria-Bertani, and shaken at 37° C. until an optical density at 600 nm of 0.4-0.5 was achieved.
(§2) Signal peptidase enzyme activity of the above proteins was measured using two fluorogenic peptide substrates (decanoyl-LSSPAYNO2A ? ADKabzPD and decanoyl-LTPTAYNO2A ? ASKKabzDD), where abz is the fluorescence donor 2-aminobenzamide, YNO2 is the fluorescence acceptor 3-nitrotyrosine, and the cleavage site is indicated with an arrow. Enzyme mix solution was prepared by diluting 2.5 nM of Escherichia coli or Staphylococcus aureus SPase protein into reaction buffers consisting of 20 mM PO4 pH 7.4, 100 mM NaCl, and 1% Elugent™ or octyl phenoxypolyethoxylethanol detergent at a concentration of 0.25% or 0.0625%. Reactions were initiated by the addition of substrate to a final concentration of 20 μM. Reaction progress was monitored by measuring the increase in fluorescence signal (excitation at 314 nm, emission at 416 nm) using a SpectraMax M2 fluorescence microplate reader. To determine IC50 values of test compounds, compound stock solutions were prepared in DMSO at a concentration of 1 mM. Three-folder serial dilutions of test compounds, starting at 10 μM, were prepared in enzyme mix solution and incubated at room temperature for 10 minutes. Following this incubation, fluorogenic substrate was added to a final concentration of 20 μM and the increase in fluorescence, corresponding to substrate cleavage, was monitored continuously at room temperature for 1 hour. Initial reaction rates were calculated based on the rate of increase in fluorescence during the reaction. Reaction rates were plotted as a function of compound concentration, and IC50 values are determined nonlinear regression analysis (SoftMaxPro 5.4, Molecular Devices™) of the sigmoidal dose-response curve.

S. aureus SPase = S. aureus SPase (Staphylococcus aureus, UniProt P0A070); assay: biochemical; settings: IC 50 (nM) S. aureus, 20 μM substrate, 10 minutes preincubation
Chain of S. aureus SPase (P0A070 whole entry): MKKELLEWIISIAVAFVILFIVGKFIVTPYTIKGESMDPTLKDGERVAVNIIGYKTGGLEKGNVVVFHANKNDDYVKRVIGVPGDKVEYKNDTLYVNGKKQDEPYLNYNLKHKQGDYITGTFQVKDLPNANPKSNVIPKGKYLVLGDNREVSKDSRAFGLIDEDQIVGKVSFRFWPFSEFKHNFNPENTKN
Experimental: Full length His-tagged S. aureus SPase protein was expressed similarly from E. coli BL21(DE3) containing the plasmid pCDF1-SaSpsB and purified similarly to the E. coli protein with the following exceptions. SPase protein was solubilized using 300 mM NaCl, 20 mM Tris pH 8.06, 5 mM Imidazole, 10% glycerol, 1% Triton X-100, prior to purification in Ni-NTA Superflow resin and resin bound protein was washed in a similar buffer containing 1% Elugent in place of Triton X-100 prior to protein eluted in wash buffer supplemented with 300 mM imidazole. […] All protein concentrations were determined by BCA assay.
as §2

[3] = MRSA USA300 (NRS384), 35° C., 22 hours

Row | Structure (SMILES) | MIC (μg/mL) E. coli [1] [µg/mL] | MIC (μg/mL) S. aureus [2, 3] [µg/mL] | IC50 (E. coli SPase) [nM] | IC50 (S. aureus SPase) [nM] | other results
1 | CCCCc1ccc(-c2ccc(C(=O)N[C@@H](CCN)C(=O)N[C@H](C(=O)N[C@@H](C)C(=O)N[C@@H](CCCCN)C(=O)N[C@@H](C)B3O[C@@H]4C[C@@H]5C[C@@H](C5(C)C)[C@]4(C)O3)[C@H](C)O)cc2)cc1 [Compound 125] ({Biphenylcarbonyl(4'-Bu)}-[Dab][aThr]AK-{boroAla((+)-pinanediol)}) | 0.4 (≈ 0.465 µM) | 0.4 (≈ 0.465 µM) | 10 | 280 | –
2 | CCCCc1ccc(-c2ccc(C(=O)N[C@@H](CCN)C(=O)N[C@@H](CCC(N)=O)C(=O)N[C@@H](C)C(=O)N[C@@H](CCCCN)C(=O)N[C@@H](C)B3OC4C[C@@H]5C[C@@H](C5(C)C)[C@]4(C)O3)cc2)cc1 (some centres unmarked) [Compound 122] ({Biphenylcarbonyl(4'-Bu)}-[Dab]QAK-X5) | 0.2 (≈ 0.225 µM) | 0.4 (≈ 0.451 µM) | 20 | 240 | –
3 | C[C@H](NC(=O)[C@H](CCCCN)NC(=O)[C@H](C)NC(=O)[C@@H](NC(=O)[C@H](CCN)NC(=O)CCCCCCCCCCCCCCN)[C@@H](C)O)B1O[C@@H]2C[C@@H]3C[C@@H](C3(C)C)[C@]2(C)O1 [Compound 116] (X6-[Dab]TAK-{boroAla((+)-pinanediol)}) | 32 (≈ 37.1 µM) | 1.4 (≈ 1.62 µM) | 200 | 480 | –
4 | CCCCc1ccc(-c2ccc(C(=O)N[C@@H](CCN)C(=O)N[C@H](C(=O)N[C@@H](C)C(=O)N[C@@H](CCCCN)C(=O)N[C@@H](C)C(=O)C3(C)CO3)[C@@H](C)O)cc2)cc1 (single isomer, unassigned) [Compound 207 P1] | – | – | 1800 | 1400 | MIC (μg/mL) E. coli ([1]; listed as 207 P1): 8 µg/mL (≈ 10.4 µM); MIC (μg/mL) S. aureus ([2]; MRSA USA300 (NRS384), 35° C., 22 hours, listed as 207 P1): 5.7 µg/mL (≈ 7.44 µM)
5 | CC(C)NC(=O)C(=O)[C@H](C)NC(=O)[C@H](CCCCN)NC(=O)[C@H](C)NC(=O)[C@@H](NC(=O)[C@H](CN)NC(=O)c1ccc(-c2ccc(Cl)cc2)cc1)[C@@H](C)O [Compound 103] ({Benzoyl(4-(4-Cl-Ph))}-[Dap]TAK[X1]-NHiPr) | >64 | >64 | 1100 | 1400 | –
6 | CCCCc1ccc(-c2ccc(C(=O)N[C@@H](CCN)C(=O)N[C@H](C(=O)N[C@@H](C)C(=O)N[C@@H](CCCCN)C(=O)N[C@@H](C)C(=O)C3OC3C)[C@@H](C)O)cc2)cc1 (single isomer, unassigned) [Compound 205 P2] | – | – | > 10000 | > 10000 | MIC (μg/mL) E. coli ([1]; listed as 205 P2): 32 µg/mL (≈ 41.8 µM); MIC (μg/mL) S. aureus ([2]; MRSA USA300 (NRS384), 35° C., 22 hours, listed as 205 P2): >64 µg/mL
7 | CCCCc1ccc(-c2ccc(C(=O)N[C@@H](CCN)C(=O)N[C@H](C(=O)N[C@@H](C)C(=O)N[C@@H](CCCCN)C(=O)N[C@@H](C)C(=O)CCl)[C@@H](C)O)cc2)cc1 [Compound 211] ({Biphenylcarbonyl(4'-Bu)}-[Dab]TAKA-CH2Cl) | 16 (≈ 21.1 µM) | 4 (≈ 5.27 µM) | 380 | 390 | –
8 | C[C@H](NC(=O)[C@@H](NC(=O)[C@H](CN)NC(=O)c1ccc(-c2ccc(Cl)cc2)cc1)[C@@H](C)O)C(=O)N[C@@H](CCCCN)C(=O)N[C@@H](C)C(=O)c1ncco1 [Compound 212] ({Benzoyl(4-(4-Cl-Ph))}-[Dap]TAK-X2) | 64 (≈ 86.3 µM) | 45 (≈ 60.7 µM) | 34 | 2600 | –
9 | CC(NC(=O)[C@H](CCCCN)NC(=O)[C@H](C)NC(=O)[C@@H](NC(=O)[C@H](CCN)NC(=O)c1ccc(-c2ccc(Cl)cc2)cc1)[C@@H](C)O)C(=O)C(F)(F)C(=O)O (some centres unmarked) [Compound 215] ({Benzoyl(4-(4-Cl-Ph))}-[Dab]TAK-X20) | 64 (≈ 81.8 µM) | – | – | – | MIC (μg/mL) S. aureus ([2]; USA300, 22 h): 6.7 µg/mL (≈ 8.57 µM)
10 | CCCCCCCCCCNCCC(=O)N[C@@H](CN)C(=O)N[C@H](C(=O)N[C@@H](C)C(=O)N[C@@H](CC(N)=O)C(=O)N[C@@H](C)B(O)O)[C@@H](C)O [Compound 222] ({Propanoyl(3-decylamino)}-[Dap]TAN-boroAla) | 8 (≈ 11.9 µM) | – | – | – | MIC (μg/mL) S. aureus ([2]; USA300, 22 h): 2 µg/mL (≈ 2.97 µM)
11 | CCCCCCCCc1ccc(C(=O)N[C@@H](CCN)C(=O)N[C@H](C(=O)N[C@@H](C)C(=O)N[C@@H](CCCCN)C(=O)N[C@@H](C)B2O[C@@H]3C[C@@H]4C[C@@H](C4(C)C)[C@]3(C)O2)[C@@H](C)O)c(C)c1 [Compound 273] (X26-[Dab]TAK-{boroAla((+)-pinanediol)}) | 0.13 (≈ 0.152 µM) | 0.13 (≈ 0.152 µM) | – | – | –
12 | CCCCCCCCCCNCCS(=O)(=O)N[C@@H](CCN)C(=O)N[C@H](C(=O)N[C@@H](C)C(=O)N[C@@H](CCCCN)C(=O)N[C@@H](C)C(=O)C(=O)OC)[C@@H](C)O [Compound 252] ({Ethanesulfonyl(2-NHDecyl)}-[Dab]TAK-AlaCOCOOMe) | 64 (≈ 82.2 µM) | – | – | – | MIC (μg/mL) S. aureus ([2]; USA300, 22 h): 1 µg/mL (≈ 1.28 µM)
13 | CCCCCCCCCCNC[C@@H](N)C(=O)N[C@H](C(=O)N[C@@H](C)C(=O)N[C@@H](CCCCN)C(=O)N[C@@H](C)B1O[C@@H]2C[C@@H]3C[C@@H](C3(C)C)[C@]2(C)O1)[C@@H](C)O [Compound 241] | 32 (≈ 42.7 µM) | 1 (≈ 1.33 µM) | – | – | –
14 | CCCCCCCCCCNCCS(=O)(=O)N[C@@H](CCCCN)C(=O)N[C@H](C(=O)N[C@@H](C)C(=O)N[C@@H](CCCCN)C(=O)N[C@@H](C)C(=O)C(=O)O)[C@@H](C)O [Compound 251] ({Ethanesulfonyl(2-NHDecyl)}-KTAK-X22) | >64 | – | – | – | MIC (μg/mL) S. aureus ([2]; USA300, 22 h): 0.5 µg/mL (≈ 0.63 µM)
15 | CCCCCCCCCCNCCNCC(=O)N[C@H](C(=O)N[C@@H](C)C(=O)N[C@@H](CCCCN)C(=O)N[C@@H](C)B1O[C@@H]2C[C@@H]3C[C@@H](C3(C)C)[C@]2(C)O1)[C@@H](C)O [Compound 244] | 64 (≈ 83.8 µM) | 0.87 (≈ 1.14 µM) | – | – | –
16 | CCCCCCCCc1ccc(C(=O)N[C@@H](CCCCN)C(=O)N[C@H](C(=O)N[C@@H](C)C(=O)N[C@@H](CCCCN)C(=O)N[C@@H](C)B2O[C@@H]3C[C@@H]4C[C@@H](C4(C)C)[C@]3(C)O2)[C@@H](C)O)c(C)c1 [Compound 274] (X26-KTAK-{boroAla((+)-pinanediol)}) | 0.5 (≈ 0.567 µM) | 0.13 (≈ 0.147 µM) | – | – | –
17 | C[C@H](NC(=O)[C@H](CCCCN)NC(=O)[C@H](C)NC(=O)[C@@H](NC(=O)[C@H](CCN)NC(=O)c1ccc(-c2ccc(Cl)cc2)cc1)[C@@H](C)O)B1O[C@@H]2C[C@@H]3C[C@@H](C3(C)C)[C@]2(C)O1 [Compound 112] ({Benzoyl(4-(4-Cl-Ph))}-[Dab]TAK-{boroAla((+)-pinanediol)}) | 64 (≈ 76.3 µM) | – | – | – | MIC (μg/mL) S. aureus ([2]; USA300, 22 h): 1 µg/mL (≈ 1.19 µM)
